Measured values published in ChEMBL document CHEMBL1123916, “Facile synthesis of 2-[(3-aminopropyl)thio]adenosine 5'-diphosphate: a key intermediate for the synthesis of molecular probes of adenosine 5'-diphosphate function” (J Med Chem, 1987).
Active and inactive are the calls of the source.

Experiments:
Assay type in all cases: functional, organism-based
Homo sapiens [1] = species on record: Homo sapiens; test: Reversible aggregation effect at low concentration; Active
Homo sapiens [2] = species on record: Homo sapiens; test: Biphasic response at low concentration; Active
Homo sapiens [3] = species on record: Homo sapiens; test: Agonistic activity against platelet aggregation; Effective agonist; conditions: filed as agonist

Measured: Activity

Nc1ncnc2c1ncn2[C@@H]1O[C@H](COP(=O)(O)OP(=O)(O)O)[C@@H](O)[C@H]1O
active: Homo sapiens [1] | Homo sapiens [2] | Homo sapiens [3] Agonist
